Data as given in PubChem BioAssay AID1033 (Sanford-Burnham Center for Chemical Genomics, 2008).
Active and inactive are the calls of the source. How the calls were made is not given here.

Target: Chaperone protein DnaK (Escherichia coli (strain K12)) (UniProt P0A6Y8)
Assay: E. coli DnaK SBD ligand binding – biophysical, NMR, chaperone (AID 1033)
Settings: Purified DnaK SBD

Chain of Chaperone protein DnaK (Escherichia coli (strain K12)) (P0A6Y8 whole entry, looked up): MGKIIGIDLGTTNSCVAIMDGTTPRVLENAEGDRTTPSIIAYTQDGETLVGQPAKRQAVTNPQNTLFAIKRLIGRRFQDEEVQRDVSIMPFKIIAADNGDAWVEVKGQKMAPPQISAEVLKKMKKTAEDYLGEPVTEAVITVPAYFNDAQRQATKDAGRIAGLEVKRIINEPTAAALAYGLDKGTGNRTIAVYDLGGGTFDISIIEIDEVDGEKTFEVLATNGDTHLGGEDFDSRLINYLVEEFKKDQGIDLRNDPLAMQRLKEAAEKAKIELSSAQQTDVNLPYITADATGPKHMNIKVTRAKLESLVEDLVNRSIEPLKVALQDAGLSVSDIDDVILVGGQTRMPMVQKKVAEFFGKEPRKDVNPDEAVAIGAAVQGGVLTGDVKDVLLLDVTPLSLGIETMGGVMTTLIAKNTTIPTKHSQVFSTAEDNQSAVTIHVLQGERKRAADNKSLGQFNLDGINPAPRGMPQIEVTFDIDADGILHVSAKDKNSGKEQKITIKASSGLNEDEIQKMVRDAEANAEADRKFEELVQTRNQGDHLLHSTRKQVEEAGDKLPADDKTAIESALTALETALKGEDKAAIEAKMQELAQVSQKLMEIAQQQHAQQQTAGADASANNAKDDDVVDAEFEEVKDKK

Row | Structure (SMILES) | Kd
1 | COc1ccc2c(c1)OC1(O)COc3cc(OC)c(OC)cc3C1=C2 (stereo unspecified) | > 4 mM (inactive)
2 | COc1cccc(-c2cc(=O)c3cc(OC)ccc3o2)c1 | > 4 mM (inactive)
3 | COc1ccc(C(=O)NNC(=S)NC(C)=O)cc1 | > 4 mM (inactive)
4 | C=C1C[C@]23C[C@@]1(O)CC[C@H]2[C@@]12C=C[C@H](O)C(C)(C(=O)O1)[C@H]2[C@@H]3C(=O)O | > 4 mM (inactive)
5 | COC(=O)[C@]1(C)CC[C@]2(C)CC[C@]3(C)C4=CC=C5C(=CC(=O)C(O)=C5C)[C@]4(C)CC[C@@]3(C)[C@@H]2C1 | > 4 mM (inactive)
6 | NC(Cn1ccc(=O)c(O)c1)C(=O)O (stereo unspecified) | > 4 mM (inactive)
7 | Cc1onc(-c2ccc(F)cc2)c1C(=O)O | > 4 mM (inactive)
8 | Cc1nc2nc(Cc3ccccc3)[nH]n2c(=O)c1Cl | > 4 mM (inactive)
9 | CC(=O)c1cccc(NC(=O)N2CCc3ccccc3C2)c1 | > 4 mM (inactive)
10 | Cc1nn(-c2ccccc2C(=O)O)c(=O)c2ccccc12 | > 4 mM (inactive)
11 | Cc1cc(C(F)(F)F)nn1CC(N)=O | > 4 mM (inactive)
12 | CNC(=O)c1ccccc1N | > 4 mM (inactive)
13 | O=C(O)c1cccc2c1OCC2 | > 4 mM (inactive)
14 | CC(=O)OC1CCC2(C)C(=CC=C3C2CCC2(C)C3CCC2C(C)/C=C/C(C)C(C)C)C1(C)C (stereo unspecified) | > 4 mM (inactive)
15 | Nc1ccc(CN2CCS(=O)(=O)CC2)cc1 | > 4 mM (inactive)
16 | O=Cc1c(N2CCOCC2)nc2ccccn2c1=O | > 4 mM (inactive)
17 | Oc1cccc(N2CCOCC2)c1 | > 4 mM (inactive)
18 | CC(=O)Oc1cc2c(c(C)c1OC(C)=O)CC=C1[C@@]2(C)CC[C@@]2(C)C3C[C@](C)(C(=O)O)CC[C@]3(C)CC[C@]12C (stereo partly specified) | > 4 mM (inactive)
19 | Cc1nc(-c2ccccc2)sc1CN | > 4 mM (inactive)
20 | O=C(O)Cc1csc(-c2ccccc2)n1 | > 4 mM (inactive)
21 | CSc1nc2nccc(N)n2n1 | > 4 mM (inactive)
22 | Cc1nn(CC(=O)Nc2ccccc2)c(=O)c2ccccc12 | > 4 mM (inactive)
23 | O=C1CSC(=Nc2cccc(C(=O)O)c2)N1 | > 4 mM (inactive)
24 | Cc1nn(C)c2sc(C(=O)O)cc12 | > 4 mM (inactive)

Row | Structure (SMILES) | Kd
25 | CN1C(CC(=O)c2ccccc2)CCCC1CC(O)c1ccccc1 (stereo unspecified) | > 4 mM (inactive)
26 | CN(C)S(=O)(=O)NCc1ccc2c(c1)OCO2 | > 4 mM (inactive)
27 | CCc1ccccc1OCc1nnc(N)s1 | > 4 mM (inactive)
28 | COC(=O)CC1C(C)(C)C(OC(C)=O)[C@@H]2[C@@H](OC(C)=O)[C@]34O[C@@]2(O)[C@]1(C)C3CC[C@]1(C)C4=CC(=O)O[C@H]1c1ccoc1 (stereo partly specified) | > 4 mM (inactive)
29 | COc1ccccc1NC(=O)c1snnc1C | > 4 mM (inactive)
30 | CC(C)=CC(=O)Nc1ccc2c(c1)OCO2 | > 4 mM (inactive)
31 | CC(C)=CCCC1(C)C=Cc2c(O)c3c(c(CC=C(C)C)c2O1)OC12C(=CCCC1C(C)(C)O[C@@]2(C/C=C(\C)C(=O)O)C(=O)O)C3=O (stereo partly specified) | > 4 mM (inactive)
32 | Cc1cc(C)nc(/N=C(/N)Nc2cccc(F)c2)n1 | > 4 mM (inactive)
33 | Cc1cc(C)n2c(SCc3c(C)noc3C)nnc2n1 | > 4 mM (inactive)
34 | Cc1ccsc1/C=c1\sc2ncnn2c1=O | > 4 mM (inactive)
35 | NC(=O)CSc1ccc2nnc(-c3ccccc3)n2n1 | > 4 mM (inactive)
36 | O=C(CSc1ccnc(=O)[nH]1)NCc1ccccc1 | > 4 mM (inactive)
37 | CC1(C)N=C2C(=[N+]1[O-])CCC/C2=N\O | > 4 mM (inactive)
38 | c1ccc(CSc2ncccn2)cc1 | > 4 mM (inactive)
39 | c1csc(-c2nnc3ccccn23)c1 | > 4 mM (inactive)
40 | O=C(O)CCC(=O)NCc1cccnc1 | > 4 mM (inactive)
41 | CCOc1cc(S(=O)(=O)N2CCOCC2)ccc1F | > 4 mM (inactive)
42 | CCOC(=O)C1CN(C)CCN1C (stereo unspecified) | > 4 mM (inactive)
43 | O=C(NC1CCS(=O)(=O)C1)c1cccs1 (stereo unspecified) | > 4 mM (inactive)
44 | O=C(Nc1cccc(Cl)c1)c1ccncc1 | > 4 mM (inactive)
45 | C[C@H]1[C@H](C)CC[C@]2(C(=O)O)CC[C@]3(C)C(=CCC4[C@@]5(C)C[C@@H](O)[C@H](O)[C@@](C)(CO)C5[C@H](O)C[C@]43C)[C@H]12 (stereo partly specified) | > 4 mM (inactive)
46 | c1ccc(NCc2nc(-c3ccccc3)no2)cc1 | > 4 mM (inactive)
47 | NCCNC(=S)Nc1ccccc1 | > 4 mM (inactive)
48 | Cc1cc(O)c(C)c(O)c1C(=O)O | > 4 mM (inactive)

Row | Structure (SMILES) | Kd
49 | Cc1nc2cc(Cl)ccc2n1CCO | > 4 mM (inactive)
50 | CC(C)c1c(O)ccc2c1CCC1[C@@](C)(CO)CCC[C@]21C (stereo partly specified) | > 4 mM (inactive)
51 | C=C(C)C1Cc2c(ccc(C(=O)O)c2O)O1 (stereo unspecified) | > 4 mM (inactive)
52 | CC(=O)OC1CCC23C(=O)OC45CCC(C6=CC(=O)OC6)C4(C)CCC2C5CCC3(O)C1 (stereo unspecified) | > 4 mM (inactive)
53 | CC(=O)c1cnc2nc(C(F)(F)F)nn2c1C | > 4 mM (inactive)
54 | CCc1noc(C)c1C(=O)N1CCCC1 | > 4 mM (inactive)
55 | O=C(CCc1ccc(O)cc1)c1c(O)cc(O)cc1O[C@@H]1O[C@H](CO)[C@@H](O)[C@H](O)[C@H]1O | > 4 mM (inactive)
56 | COc1ccc2c(c1)OC[C@@H](Cc1ccc(OC)c(OC)c1)[C@@H]2O | > 4 mM (inactive)
57 | COC(=O)CC1=Nc2ccccc2NC(=O)C1 | > 4 mM (inactive)
58 | O=c1[nH]nc(Cc2ccccn2)c2ccccc12 | > 4 mM (inactive)
59 | COc1cc(C)nc(N(CCO)CCO)n1 | > 4 mM (inactive)
60 | Cc1nc2ccccc2c(=O)n1CCCO | > 4 mM (inactive)
61 | CC(=O)Nc1cccc(N(C)S(C)(=O)=O)c1 | > 4 mM (inactive)
62 | Cc1cc(OC(=O)c2c(C)cc(O)cc2O)cc(O)c1C(=O)O | > 4 mM (inactive)
63 | Nc1nnc(Cc2ccc(Cl)cc2)s1 | > 4 mM (inactive)
64 | Cc1nnc(-n2cnc3ccccc32)c2ccccc12 | > 4 mM (inactive)
65 | Cc1cc(C(=O)Nc2cccnc2)cs1 | > 4 mM (inactive)
66 | Cc1occc(=O)c1O | > 4 mM (inactive)
67 | O=C(Nc1nccs1)c1ccc(=O)[nH]n1 | > 4 mM (inactive)
68 | N/C(=N/O)C1COc2ccccc2O1 (stereo unspecified) | > 4 mM (inactive)
69 | NC(=O)c1cccc2c(=O)oc3ccccc3c12 | > 4 mM (inactive)
70 | O=C(O)C(Cc1cnc[nH]1)N1C(=O)c2ccccc2C1=O (stereo unspecified) | > 4 mM (inactive)
71 | Cc1ccc2nc(SCC(=O)O)nc(C)c2c1 | > 4 mM (inactive)
72 | O=C1OCCC1Sc1nc2ccccc2c(=O)[nH]1 (stereo unspecified) | > 4 mM (inactive)

Row | Structure (SMILES) | Kd
73 | O=C1c2cccnc2C(=O)N1Cc1ccc2c(c1)OCO2 | > 4 mM (inactive)
74 | Cc1ccc(NC(=O)C2CCN(S(C)(=O)=O)CC2)cc1 | > 4 mM (inactive)
75 | Cc1nnsc1C(=O)Nc1ccc(C(N)=O)cc1 | > 4 mM (inactive)
76 | NC(=O)c1ccc(C(N)=O)cc1 | > 4 mM (inactive)
77 | CC(=O)Nc1c(C)n(C)n(-c2ccccc2)c1=O | > 4 mM (inactive)
78 | O=C(NCCCO)c1ccncc1 | > 4 mM (inactive)
79 | Cn1c(=O)n(CC(=O)Nc2cccnc2)c2ccccc21 | > 4 mM (inactive)
80 | Cn1c(O)c(C2=NC(=S)NC2=O)c2ccccc21 | > 4 mM (inactive)
81 | CC(CCC(=O)O)[C@H]1CCC2C3CC[C@@H]4C[C@H](O)CC[C@]4(C)C3C[C@H](O)[C@@]21C (stereo partly specified) | > 4 mM (inactive)
82 | Cc1ccc2cc(N)ccc2n1 | > 4 mM (inactive)
83 | CC(=O)Nc1cccc(-c2nnc(-c3ccccc3)o2)c1 | > 4 mM (inactive)
84 | O=C(Nc1nc2ccccc2s1)c1ccc(=O)[nH]n1 | > 4 mM (inactive)
85 | CN(C)C(=O)CCNS(=O)(=O)c1ccccc1 | > 4 mM (inactive)
86 | CC(=O)Nc1nnc(-c2ccncc2)s1 | > 4 mM (inactive)
87 | C=C1C(=O)O[C@@H]2C[C@@]3(C)CCC[C@H](C)C3=C[C@H]12 | > 4 mM (inactive)
88 | Cc1cc(=O)oc2cc(O)c(O)cc12 | > 4 mM (inactive)
89 | C=CC(C1=CC(=O)C=CC1=O)c1ccccc1 (stereo unspecified) | > 4 mM (inactive)
90 | Nc1ccc(Cc2ccncc2)cc1 | > 4 mM (inactive)
91 | O=c1c(O)c(-c2ccccc2)oc2ccc3occc3c12 | > 4 mM (inactive)
92 | Cc1cc(C(=O)NCc2ccco2)cs1 | > 4 mM (inactive)
93 | C[C@H]1C(=O)O[C@@H]2CCN3CC=C(COC(=O)[C@](C)(O)[C@]1(C)O)[C@H]23 | > 4 mM (inactive)
94 | O=C(NCc1cccs1)c1ccncc1 | > 4 mM (inactive)
95 | OCCNc1ccccn1 | > 4 mM (inactive)
96 | O=C(O)C1=C[C@@H](O)[C@@H](O)[C@H](O)C1 | > 4 mM (inactive)

Row | Structure (SMILES) | Kd
97 | NC(=O)C1CCN(C(=O)c2ccccc2)CC1 | > 4 mM (inactive)
98 | CC(C)CCCC(C)[C@H]1CCC2C3CC[C@H]4CC(=O)CC[C@]4(C)C3CC[C@@]21C (stereo partly specified) | > 4 mM (inactive)
99 | CC(C)(C)Cc1nc(-c2ccccn2)no1 | > 4 mM (inactive)
100 | Cc1ccc(NC(=O)N2CCC(C(N)=O)CC2)cc1 | > 4 mM (inactive)
101 | Cc1ccc(-c2nnn(CC(=O)O)n2)cc1 | > 4 mM (inactive)
102 | O=C(Nc1nnc(-c2ccccc2Cl)o1)c1ccco1 | > 4 mM (inactive)
103 | CN(C)C(=O)C12CCC(C)(C(=O)O1)C2(C)C (stereo unspecified) | > 4 mM (inactive)
104 | O=C(NCCO)c1cc2ccccc2cc1O | > 4 mM (inactive)
105 | NCc1ccc(S(=O)(=O)O)cc1 | > 4 mM (inactive)
106 | O=C(O)C1CSC(c2ccc(Cl)cc2)N1 (stereo unspecified) | > 4 mM (inactive)
107 | COc1ccc2c(=O)c(OC)c(-c3ccccc3)oc2c1 | > 4 mM (inactive)
108 | c1ccc(CCc2nc(-c3ccccn3)no2)cc1 | > 4 mM (inactive)
109 | COc1ccccc1NC(C)=O | > 4 mM (inactive)
110 | CC(C)c1ccc2c(c1O)CC[C@H]1C3=C(CC[C@]21C)C(=O)OC3 | > 4 mM (inactive)
111 | Cc1csc2nc(N)nn12 | > 4 mM (inactive)
112 | O=C(NC1=NCCS1)c1ccc([N+](=O)[O-])cc1Cl | > 4 mM (inactive)
113 | CC(=O)c1ccc2c(c1)OCCO2 | > 4 mM (inactive)
114 | OCc1cccc2c1OCO2 | > 4 mM (inactive)
115 | COC(=O)Cc1csc(N)n1 | > 4 mM (inactive)
116 | CNC(=O)Cn1c(=O)n(C)c2ccccc21 | > 4 mM (inactive)
